Read-outs that look alike come from different tables or passages of the source.
Tests used:
[1] = tested on: MRSA 15852; assay type: cell-based, Staphylococcus aureus; conditions: S. aureus 15852
Procedure: The fractionary inhibitory (FIC) concentration index for combinations of two antimicrobial agents was calculated as follows: FIC index=FICA+FICB=A/MICA+B/MICB where A and B are the MIC values of agent A and agent B in the combination, MICA and MICB are the MICs of agent A and agent B alone, and FICA and FICB are the FICs of agent A and agent B.
The FIC indexes were interpreted as follows: less than 0.5 indicates a clear re-sensitizing effect; from 0.5 to 4 indicates a marginal or null re-sensitizing effect; and over 4 indicates antagonism.

[2] = tested on: E. coli 14182; experiment: Antibiotic MIC by microdilution with or without sub-MIC polymer; assay type: cell-based, Escherichia coli; conditions: for Antibiotic MIC in presence of C12K(NC8K)7NH2 (SEQ ID NO: 4), +¼ MIC: polymer at ¼ of its MIC; for Antibiotic MIC in presence of C12K(NC8K)7NH2 (SEQ ID NO: 4), +½ MIC: polymer at ½ of its MIC; for Antibiotic MIC in presence of C12K(NC8K)7NH2 (SEQ ID NO: 4), +⅓ MIC: polymer at ⅓ of its MIC
[3] = tested on: E. coli N281 (L22 mutation); assay type: cell-based, Escherichia coli; conditions: E. coli N281 L22 mutation
[4] = tested on: S. aureus 17314; experiment: Antibiotic MIC by microdilution with or without sub-MIC polymer; assay type: cell-based, Staphylococcus aureus; conditions: S. aureus 17314
[5] = tested on: S. aureus 43300; experiment: as above; assay type: cell-based, Staphylococcus aureus; conditions: no polymer (None)
Procedure: MICs were determined by microdilution susceptibility testing in 96-well plates (by Nunc) using inocula of 10^5 bacteria per ml. Cell populations were evaluated by optical density measurements at 620 nm and were calibrated against a set of standards. Hundred (100) μl of a bacterial suspension were added to 100 μl of culture medium (control) or to 100 μl of culture medium containing various polymer concentrations in 2-fold serial dilutions. Inhibition of proliferation was determined by optical density measurements at 620 nm after an incubation period of 24 hours at 37° C.
Table 8 below presents the MIC values of antibiotics in presence or absence of C12(5-ene)KKNC12KNH2 (SEQ ID NO: 2) at sub-MIC levels of the polymer, as measured for the S. aureus strains 43300 (ATCC), 15819 (clinical isolate), 15877 (clinical isolate) and 15852 (clinical isolate). MICs were determined by microdilution susceptibility testing in 96-well plates (Nunc) using inocula of 10^5 bacteria per ml. One hundred (100) μl of a bacterial suspension were added to 100 μl of culture medium (control) or to 100 μl of culture medium containing various antibiotic and C12(5-ene)KKNC12KNH2 (SEQ ID NO: 2) concentrations in 2-fold serial dilutions. Inhibition of proliferation was determined by optical density measurements at 620 nm after an incubation period of 24 hours at 37° C.
100 μl of a bacterial suspension were added to 100 μl of culture medium (control) or to 100 μl of culture medium containing various antibiotic and C14(9-ene)KKNC12KNH2 (SEQ ID NO: 5) concentrations in 2-fold serial dilutions. Inhibition of proliferation was determined by optical density measurements at 620 nm after an incubation period of 24 hours at 37° C.

[6] = +¼ MIC (1.6 μM) C12K(KNC12K)2NH2
[7] = +¼ MIC (1.6 μM) C14(9-ene)KKNC12KNH2
[8] = +½ MIC (3.12 μM) C12K(KNC12K)2NH2
[9] = +½ MIC (3.12 μM) C14(9-ene)KKNC12KNH2
[10] = +⅓ MIC (2.1 μM) C12K(KNC12K)2NH2
[11] = +⅓ MIC (2.1 μM) C14(9-ene)KKNC12KNH2

Structure (SMILES) | Antibiotic MIC ([2]; +½ MIC C12K(NC8K)5NH2) [µg/mL] | Antibiotic MIC ([2]; +⅓ MIC C12K(NC8K)5NH2) [µg/mL] | Antibiotic MIC in presence of C12K(NC8K)7NH2 (SEQ ID NO: 4), +¼ MIC [2] [µg/mL] | Antibiotic MIC in presence of C12K(NC8K)7NH2 (SEQ ID NO: 4), +½ MIC [2] [µg/mL] | Antibiotic MIC in presence of C12K(NC8K)7NH2 (SEQ ID NO: 4), +⅓ MIC [2] [µg/mL] | Antibiotic MIC [4, 6] [µg/mL] | Antibiotic MIC ([4]; +¼ MIC (1.6 μM) C12KKNC12KNH2) [µg/mL] | Antibiotic MIC [4, 7] [µg/mL] | Antibiotic MIC [4, 8] [µg/mL] | Antibiotic MIC ([4]; +½ MIC (3.12 μM) C12KKNC12KNH2) [µg/mL] | Antibiotic MIC [4, 9] [µg/mL] | Antibiotic MIC [4, 10] [µg/mL] | Antibiotic MIC ([4]; +⅓ MIC (2.1 μM) C12KKNC12KNH2) [µg/mL] | Antibiotic MIC [4, 11] [µg/mL] | Antibiotic MIC ([4]; no polymer (None), Table 9) [µg/mL] | Antibiotic MIC ([4]; no polymer (None), Table 10) [µg/mL] | Antibiotic MIC ([4]; no polymer (None), Table 11) [µg/mL] | Antibiotic MIC ([4]; no polymer (None), Table 12) [µg/mL] | other results
CC[C@H]1OC(=O)[C@H](C)[C@@H](O[C@H]2C[C@@](C)(OC)[C@@H](O)[C@H](C)O2)[C@H](C)[C@@H](O[C@@H]2O[C@H](C)C[C@H](N(C)C)[C@H]2O)[C@](C)(O)C[C@@H](C)C(=O)[C@H](C)[C@@H](O)[C@]1(C)O [Erythromycin, erythromycin] | 8 to 16 | 32 to 64 | 32 | 8 | 16 | 1 | 1 | 1 | 0.5 to 1 | 1 | 1 | 0.5 to 1 | 1 | 1 | 1 | 1 | 1 | 1 | Antibiotic MIC ([1]; +¼ MIC (1.6 μM) C12(5-ene)KKNC12KNH2): >512 µg/mL; Antibiotic MIC ([1]; +¼ MIC (1.6 μM) C12KKNC12KNH2): >512 µg/mL; Antibiotic MIC ([1]; +½ MIC (3.12 μM) C12(5-ene)KKNC12KNH2): >512 µg/mL; Antibiotic MIC ([1]; +½ MIC (3.12 μM) C12KKNC12KNH2): >512 µg/mL; Antibiotic MIC ([1]; +⅓ MIC (2.1 μM) C12(5-ene)KKNC12KNH2): >512 µg/mL; Antibiotic MIC ([1]; +⅓ MIC (2.1 μM) C12KKNC12KNH2): >512 µg/mL; Antibiotic MIC ([1]; no polymer (None), Table 8): >512 µg/mL; Antibiotic MIC ([1]; no polymer (None), Table 11): >512 µg/mL; Antibiotic MIC ([3]; +¼ MIC C12K(NC8K)5NH2): 512 µg/mL; Antibiotic MIC ([3]; +¼ MIC C12K(NC8K)7NH2): >512-512 μg/ml; Antibiotic MIC ([3]; +½ MIC C12K(NC8K)5NH2): 16 to 32 µg/mL; Antibiotic MIC ([3]; +⅓ MIC C12K(NC8K)7NH2): 512 µg/mL; Antibiotic MIC ([3]; no OAK, Table 18): >512 µg/mL; Antibiotic MIC ([3]; no OAK, Table 19): >512 µg/mL; Antibiotic MIC ([4]; +¼ MIC (1.6 μM) C16(9-ene)KKNC12KNH2): 1 µg/mL; Antibiotic MIC ([4]; +½ MIC (3.12 μM) C16(9-ene)KKNC12KNH2): 0.5 µg/mL; Antibiotic MIC ([4]; +⅓ MIC (2.1 μM) C16(9-ene)KKNC12KNH2): 1 µg/mL
CN(C)[C@@H]1C(O)=C(C(N)=O)C(=O)[C@@]2(O)C(O)=C3C(=O)c4c(O)cccc4[C@@](C)(O)[C@H]3C[C@@H]12 [Tetracycline, tetracycline] | 8 to 16 | 32 | 32 | 8 to 16 | 32 | 0.25 | 0.25 to 0.5 | 0.25 | 0.25 | 0.25 to 0.5 | 0.25 | 0.5 | 0.25 to 0.5 | 0.25 | 0.25 | 0.25 | 0.25 to 0.5 | 0.25 to 0.5 | Antibiotic MIC ([5]; Table 8): 0.25 µg/mL; Antibiotic MIC ([5]; Table 9): 0.25 µg/mL; Antibiotic MIC ([5]; Table 10): 0.25 µg/mL; Antibiotic MIC ([5]; Table 11): 0.5 µg/mL; Antibiotic MIC ([5]; Table 12): 0.5 µg/mL; Antibiotic MIC ([2]; +¼ MIC C12K(NC8K)5NH2): 32 µg/mL; Antibiotic MIC, None ([2]; antibiotic alone (Table 15)): 32 to 64 µg/mL; Antibiotic MIC ([2]; no polymer (None), Table 14): 32 to 64 µg/mL

Reference: US20180153995A1, “USE OF ANTIMICROBIAL POLYMERS FOR RE-SENSITIZATION OF MICROORGANISMS UPON EMERGENCE OF RESISTANCE TO ANTI-MICROBIAL AGENTS” (Technion Research & Development Foundation Limited, priority 2008, published 2018)
